Assay results from patent US20080194658A1, “Sterol Carrier Protein-2 Inhibitors for Lowering Cholesterol and Triglyceride Levels in Mammals” (priority 2006, published 2008).

Tests used:
rats [1] = assay: Serum ALT levels in rats (liver function); format: in vivo; settings: oral, various dosages for 5 days (FIG. 3)
Method: (§1) Mammalian species (i.e., rats) were used. Rats were fed a standard diet (3.5% fat, <0.02% cholesterol). Weaned rats were grouped into treated and controls. Rats were chosen as the testing animal so that 0.5 ml of blood samples could be taken for testing. Rats were anesthetized first in an induction chamber with isoflurane and oxygen (100%). Once anesthetized rats were positioned dorsally for the blood draw from the jugular or ventral tail vein. An anesthetic nose-cone was placed on the nose of the rat allowing isoflurane and oxygen (100%) to be delivered through a Bain circuit. After obtaining blood, the rats were allowed to recover in a shoebox cage with a heat lamp positioned over the top of the cage. Once the rats were awake and moving freely around the recovery cage, they are placed back in their normal cages. Total time for procedure is ˜15-20 minutes per rat.
N-(4-{[4-(3,4-dichlorophenyl)-1,3-thiazol-2-yl]amino}phenyl)acetamide hydrobromide was mixed with DMSO (solvent) in increasing dosages, which were feed to laboratory rats. Rats received the preparations via oral drops. Daily observations were recorded concerning (i) weight changes and (ii) mortality. […]
The vertebrate SCP-2 is involved in cholesterol metabolism, therefore, cholesterol homeostasis is advantageously monitored when SCP-2 inhibitors are tested in mammalian species. […]

[2] = Growth rate of young rats upon oral administration; format: in vivo; settings: young rats starting at 20 days of age, 5 days/week at various dosages (FIG. 1)
Method: FIG. 1 is a graph showing growth rates of young rats (starting at 20 days of age) upon oral administration of N-(4-{[4-(3,4-dichlorophenyl)-1,3-thiazol-2-yl]amino}phenyl)acetamide hydrobromide, whereby the effect on growth rate was insignificant, whereby the drug was administered 5 days/week at various dosages, whereby weight was measured every day during the treatment regimen (Monday-Friday), whereby the data is shown in three groups to compensate for variations in growth rate as the animals aged, whereby the listed days represent the number of days after the initial first administration, and whereby the bars represent the average growth rate±Standard deviation.
Mammalian species (i.e., rats) were used. Rats were fed a standard diet (3.5% fat, <0.02% cholesterol). Weaned rats were grouped into treated and controls. Rats were chosen as the testing animal so that 0.5 ml of blood samples could be taken for testing. Rats were anesthetized first in an induction chamber with isoflurane and oxygen (100%). Once anesthetized rats were positioned dorsally for the blood draw from the jugular or ventral tail vein. […]
N-(4-{[4-(3,4-dichlorophenyl)-1,3-thiazol-2-yl]amino}phenyl)acetamide hydrobromide was mixed with DMSO (solvent) in increasing dosages, which were feed to laboratory rats. […] Daily observations were recorded concerning (i) weight changes and (ii) mortality. […]

rats [3] = assay: Total serum cholesterol levels in rats; format: in vivo, rat; settings: oral, varying concentrations for 5 days, all treated animals (FIG. 2)
Method: as §1
N-(4-{[4-(3,4-dichlorophenyl)-1,3-thiazol-2-yl]amino}phenyl)acetamide hydrobromide was mixed with DMSO (solvent) in increasing dosages, which were feed to laboratory rats. Rats received the preparations via oral drops. Daily observations were recorded concerning (i) weight changes and (ii) mortality. Blood samples were taken every three weeks for testing cholesterol levels and for testing Alanine Aminotransferase (ALT) for liver function. […]

With `Br.CC(=O)Nc1ccc(Nc2nc(-c3ccc(Cl)c(Cl)c3)cs2)cc1` [N-(4-{[4-(3,4-dichlorophenyl)-1,3-thiazol-2-yl]amino}phenyl)acetamide hydrobromide] the “serum ALT levels, control (0 mg/kg) vs treated animals” value (rats [1]) was “no significant difference”, the “effect on growth rate” value [2] was “insignificant” and the “total serum cholesterol levels” value (rats [3]) was “significant decrease”.
